In general, IC50 refers to the midpoint of a concentration-inhibition curve. Read a low IC50 as greater potency.

The test system of experiment [1] is ISHIKAWA human endometrial adenocarcinoma cells. The experiment is described as follows: MTT cell viability, […]. Format: cell-based. The following applies: 72 h, mean ± SD. Here is the method: (§1) The six cell lines used in this work (MCF-7, MDA-MB-231, HeLa, […], MCF-10A and Hek-293) were purchased from American Type Culture Collection (ATCC, Manassas, VA, USA). MCF-7 human breast cancer cells, estrogen receptor (ER)-positive, were maintained in Dulbecco’s modified Eagle’s medium/nutrient mixture Ham F-12 (DMEM/F12), supplemented with 10% fetal bovine serum (FBS) and 100 U mL^−1 penicillin/streptomycin. MCF-10A human mammary epithelial cells, were cultured in DMEM/F12 medium, supplemented with 5% horse serum (HS, Thermo Fisher Scientific, Milan, Italy), 100 U mL^−1 penicillin/streptomycin, […] hydrocortisone, 20 ng mL^−1 human epidermal growth factor (hEGF), […] insulin, and […] cholera enterotoxin (Sigma–Aldrich, Milan, Italy). MDA-MB-231 human breast cancer cells, known as triple-negative cells (i.e., not overexpressing human epidermal growth factor receptor 2 (HER2), estrogen and progesterone receptors), were cultured in DMEM/F12 supplemented with 5% FBS, 1% L-glutamine and 100 U mL^−1 penicillin/streptomycin. HeLa human epithelial cervix carcinoma cells, estrogen receptor (ER)-negative, and […] human endometrial adenocarcinoma cells, estrogen receptor (ER)-positive, were maintained in minimum essential Eagle’s Medium (MEM), supplemented with 10% FBS, 1% L-glutamine, 100 U mL^−1 penicillin/streptomycin and 1% Non-Essential Amino Acids (NEAA). Hek-293 human embryonic kidney epithelial cells were cultured in DMEM high glucose (4.5 g L^−1), supplemented with 10% FBS, 1% L-glutamine and 100 U mL^–1 penicillin/streptomycin. Cells were maintained at 37 °C in a humidified atmosphere of 95% air and 5% CO2 and periodically screened for contamination.
(§2) Cell viability has been determined using the 3-(4,5-dimethylthiazol-2-y1)-2,5-diphenyltetrazolium bromide (MTT, Sigma–Aldrich, Milan, Italy) assay. Cells have been seeded on 48-well plates and grown in complete medium. Before being treated, cells have been starved in serum free medium for 24 h for allowing cell cycle synchronization. […] Data are representative of three independent experiments; standard deviations (SD) have been shown.

Experiment [2] concerns MCF-10A human mammary epithelial cells. The experiment is described as follows: MTT cell viability, normal MCF-10A. Format: cell-based. To be noted: 72 h, mean ± SD. Here is the method: as §1, §2
Experiment [3] concerns MDA-MB-231 cells. Put plainly: Immunofluorescence of microtubules, MDA-MB-231. Format: cell-based, human. The following applies: at IC50 value, 24 h. As for the experimental part: Cells were grown on glass coverslips in full media, then serum-deprived for 24 h and exposed to compounds for 24 h (concentration equal to its IC50 value). Then, the cells after PBS-washed, were fixed with cold methanol (15 min/−20 °C) and incubated with primary antibody, diluted in blocking solution (4 °C/overnight), as previously described. The mouse anti-β-Actin (69879) and the rabbit anti-β tubulin (9104) were purchased from Santa Cruz Biotechnology and used at 1:100 dilution. Coverslips were then washed 3 times with PBS, then fixed cells were incubated with the secondary antibody Alexa Fluor® 568 conjugate goat-anti-mouse and Alexa Fluor® 488 conjugate goat-anti-rabbit (1:500, Thermo Fisher Scientific, Waltham, MA, USA). Nuclei were stained using DAPI (Sigma–Aldrich, Mila, Italy) for 10 min at a concentration of 0.2 μg/mL then washed 3 times with PBS. Fluorescence was detected using a fluorescence microscope (Leica DM 6000). LAS-X software was used to acquire and process all images.
Figure 5 Immunofluorescence studies. […] Panels A: DAPI, excitation/emission wavelength 350 nm/460 nm; panels B: β-tubulin (Alexa Fluor® 488) excitation/emission wavelength 490 nm/515 nm; panels C show a merge. Representative fields are shown.

In experiment [4] the target is T1, human topoisomerase I (hTopo I) (Homo sapiens, UniProt P11387).
T1 construct: purchased TopoGEN, Port Orange, FL, USA
T1 sequence (P11387 1-765): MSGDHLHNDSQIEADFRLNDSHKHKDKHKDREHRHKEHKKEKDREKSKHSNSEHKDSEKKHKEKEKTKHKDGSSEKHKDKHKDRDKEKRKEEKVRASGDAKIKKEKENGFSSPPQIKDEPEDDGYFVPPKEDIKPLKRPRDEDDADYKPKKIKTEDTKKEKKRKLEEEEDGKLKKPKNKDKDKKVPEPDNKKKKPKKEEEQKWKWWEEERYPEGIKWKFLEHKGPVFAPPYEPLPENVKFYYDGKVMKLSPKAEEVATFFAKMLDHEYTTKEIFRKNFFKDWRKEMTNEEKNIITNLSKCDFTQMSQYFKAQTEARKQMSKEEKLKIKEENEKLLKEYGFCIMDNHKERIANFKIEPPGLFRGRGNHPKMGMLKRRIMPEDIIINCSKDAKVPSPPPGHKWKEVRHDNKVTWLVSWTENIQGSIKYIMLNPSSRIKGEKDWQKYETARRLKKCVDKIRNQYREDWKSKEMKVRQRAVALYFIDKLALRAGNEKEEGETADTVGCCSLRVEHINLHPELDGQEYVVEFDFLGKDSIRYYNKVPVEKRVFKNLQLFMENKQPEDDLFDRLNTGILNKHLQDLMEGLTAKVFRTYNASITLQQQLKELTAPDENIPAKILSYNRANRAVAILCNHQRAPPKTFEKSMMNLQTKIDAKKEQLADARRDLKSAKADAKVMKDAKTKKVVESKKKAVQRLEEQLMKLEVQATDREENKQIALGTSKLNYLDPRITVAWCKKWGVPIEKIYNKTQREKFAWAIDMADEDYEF
Put plainly: Human topoisomerase I relaxation assay. Format: biochemical. To be noted: 1 μM. Here is the method: Topoisomerases are essential enzymes involved in DNA metabolism, because of their ability to cause temporary DNA strand breakage, and tightly involved, if overexpressed, in cancer development.
hTopo I relaxation assays have been performed in a final volume of […], as reported by Iacopetta et al., incubating […] of supercoiled plasmid pHOT1 in Tris-EDTA (TE) buffer (TopoGEN, Port Orange, FL, USA) with tested compounds and recombinant hTopo I (2 units) (TopoGEN, Port Orange, FL, USA) for 1h at 37 °C. The obtained solution has been loaded in a 1% agarose gel containing 1× Tris-acetate-EDTA (TAE) buffer without ethidium bromide (EB). Agarose gel has been stained using 1× TAE buffer with EB ([…]) for 30 min and after washed with distilled water for 15 min. At the end, it has been visualized by using a ultraviolet (UV) transilluminator. The experiment was performed in triplicate.
Figure 7 hTopoI assay.

On to `C[n+]1c(Cl)c(Cl)n(CC(O)c2ccccc2)[c]1[Au-][c]1n(CC(O)c2ccccc2)c(Cl)c(Cl)[n+]1C.[Cl][Au-][Cl]` (racemic) [AuL7, bis-[4,5-dichloro-(N-methyl-N’(2-hydroxy-2-phenyl)ethyl-imidazole-2-ylidene)gold(I)]^+[dichloro-gold]^−], for which, in experiment [1], the half-maximal inhibitory concentration (IC50) worked out at 29.9 ± 0.9 µM. In addition, in experiment [2], the IC50 was greater than 200 µM and the “IC50 MCF-10A” value is “inactive”. In addition, the “effect on microtubule network, MDA-MB-231” value in experiment [3] is listed as “vinblastine-like mode of action”. In addition, the “inhibition of hTopo I supercoil relaxing activity” value in experiment [4] was “totally inhibition”.

These data come from paper PMC7281280, “Is the Way to Fight Cancer Paved with Gold? Metal-Based Carbene Complexes with Multiple and Fascinating Biological Features” (Pharmaceuticals, 2020).
